Measured values taken from patent US6143774A, “Imidazole n-benzyldioxol derivatives, method for preparing same, resulting intermediates, pharmaceutical compositions and use of said derivatives as endothelin antagonists” (Hoechst Marion Roussel, priority 1995, dated 2000).

How the values were obtained:
Endothelin B receptor = biological target: T1, Endothelin B receptor (Rattus norvegicus, UniProt P21451); assay: Study of the affinity for the endothelin B receptor (125I endothelin displacement, rat cortex plus cerebellum membranes); format: binding; details: rat rear cortex plus cerebellum membranes, 25° C., 60 minutes
T1 construct: A membrane preparation is prepared from the rear cortex plus the cerebellum of a rat; from tissue; host or cells: rat rear cortex plus cerebellum (membrane preparation)
T1 sequence (P21451 27-442): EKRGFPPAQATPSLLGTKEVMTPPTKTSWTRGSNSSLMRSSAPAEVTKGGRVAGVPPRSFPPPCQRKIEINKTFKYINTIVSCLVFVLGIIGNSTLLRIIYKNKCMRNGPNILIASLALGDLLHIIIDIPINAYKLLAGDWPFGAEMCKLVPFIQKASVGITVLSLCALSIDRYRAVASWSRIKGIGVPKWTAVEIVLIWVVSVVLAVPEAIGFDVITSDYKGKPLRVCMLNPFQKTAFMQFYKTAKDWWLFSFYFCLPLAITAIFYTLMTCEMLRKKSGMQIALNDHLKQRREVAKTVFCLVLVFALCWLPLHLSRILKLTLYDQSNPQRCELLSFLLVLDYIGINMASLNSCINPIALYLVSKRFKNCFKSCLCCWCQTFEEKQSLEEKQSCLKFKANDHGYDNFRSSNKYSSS
Method: 2) Study of the Affinity for the Endothelin B Receptor
A membrane preparation is prepared from the rear cortex plus the cerebellum of a rat. The tissue is ground up in a POLYTRON in a 50 mM Tris buffer pH=7.4.
(§1) After 30 minutes at 25° C. (W.B.) the homogenate is centrifuged at 30,000 g for 15 minutes (2 centrifugations with intermediate take-up in the Tris buffer pH 7.4).
(§2) The pellets are suspended in an incubation buffer (25 mM Tris, 5 microg/ml pepstatin A, 3 microg/ml aprotinin, 0.1 mM PMSF, 3 mM EDTA, 1 mM EGTA pH 7.4).
2 ml aliquoted fractions are distributed in hemolysis tubes and ^125 I endothelin (approx. 5,000 dpm/tube) and the product to be studied are added. (The product is first tested at 3×10^-5 M three times). When the tested product displaces more than 50% of the radioactivity specifically bound to the receptor, it is tested again according to a range of 7 concentrations in order to determine the concentration which inhibits by 50% the radioactivity specifically bound to the receptor. In this way the 50% inhibitory concentration is determined.
(§3) The non-specific bond is determined by the addition of endothelin at 10^-6 M (three times). After incubation at 25° C. for 60 minutes, replacing in a water bath at 0° C. for 5 minutes, filtration under reduced pressure and rinsing with Tris buffer pH 7.4, the radioactivity is counted in the presence of scintillating Triton.
(§4) The result is expressed directly as the 50% inhibitory concentration (IC50), that is to say as the concentration of product studied, expressed in nM, necessary to displace 50% of the specific radioactivity fixed to the receptor studied.

Endothelin A receptor = biological target: T2, Endothelin A receptor (Rattus norvegicus, UniProt P26684); assay: Study of the affinity for the endothelin A receptor (125I endothelin displacement, rat heart ventricle membranes); format: binding; details: rat heart (ventricles) membranes, 25° C., 60 minutes
T2 construct: A membrane preparation is prepared from the heart (ventricles) of a rat; from tissue; host or cells: rat heart ventricles (membrane preparation)
T2 sequence (P26684 21-426): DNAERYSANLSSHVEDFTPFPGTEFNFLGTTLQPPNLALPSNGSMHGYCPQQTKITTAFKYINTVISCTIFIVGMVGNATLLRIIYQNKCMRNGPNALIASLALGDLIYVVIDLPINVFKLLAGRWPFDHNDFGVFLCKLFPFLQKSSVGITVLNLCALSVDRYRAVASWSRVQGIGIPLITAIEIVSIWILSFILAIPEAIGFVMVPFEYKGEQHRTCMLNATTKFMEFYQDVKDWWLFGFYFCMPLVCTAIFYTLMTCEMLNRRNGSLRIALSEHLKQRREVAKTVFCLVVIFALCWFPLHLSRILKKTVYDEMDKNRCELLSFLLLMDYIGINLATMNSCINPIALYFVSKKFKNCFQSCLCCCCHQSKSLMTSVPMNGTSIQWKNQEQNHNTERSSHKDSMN
Method: 1) Study of the Affinity for the Endothelin a Receptor
A membrane preparation is prepared from the heart (ventricles) of a rat. The tissue is ground up in a POLYTRON in a 50 mM Tris buffer pH=7.4.
as §1, §2
2 ml aliquoted fractions are distributed in hemolysis tubes and ^125 I endothelin (approx. 5,000 dpm/tube) and the product to be studied are added. (The product is first tested at […] three times). When the tested product displaces more than 50% of the radioactivity specifically bound to the receptor, it is tested again according to a range of 7 concentrations in order to determine the concentration which inhibits by 50% the radioactivity specifically bound to the receptor. In this way the 50% inhibitory concentration is determined.
as §3, §4

endothelin (ET1) [1] = assay: Test for antagonistic activity of endothelin in the demedullated rat; format: in vivo, male Sprague Dawley rats
Method: 3) Test for Antagonistic Activity of Endothelin in the Demedullated Rat
Male Sprague Dawley rats (250 to 350 g) are anaesthetized (sodium pentobarbital 60 mg/kg injected by intraperitoneal route). The animal is placed under assisted respiration and a bilateral section of the vagus nerves is carried out. The rat is then demedullated.
The average arterial pressure is recorded with a heparin catheter (PE50) introduced into the carotid of the animal, and connected via a pressure sensor and an amplifier to a recorder (Gould, Pressure Processor). A catheter is introduced into the pudendal vein in order to allow injection of the molecules to be studied. After a stabilization period (about 15 minutes), the product or the solvent is injected 10 minutes before a range of increasing doses of endothelin which are injected every 2 minutes (0.1-0.3-1-3-10 μg/kg).
The anatagonistic activity of the products is estimated by the percentage inhibition in the increase in pressure induced by the endothelin at doses of 3 and 10 μg/kg.

endothelin (ET1) [2] = assay: Protection against sudden death induced by IV injection of endothelin (ET1) in a female mouse; format: in vivo
Method: 5) Protection Against Sudden Death Induced by IV Injection of Endothelin (ET1) in a Female Mouse
A lethal dose of ET1 (10 nmole/kg IV) is injected into female mice. The solvent or the molecules to be studied are injected 10 minutes before (i.v. route) or 30 minutes before (oral route) the endothelin.
The protection is calculated in the form of ED50 (50% effective dose, or the dose capable of reducing the mortality by 50% relative to the control group).

[3] = tested on: endothelin (ET), isolated thoracic aorta of a rat; assay: Antagonistic activity of endothelin on the isolated aorta of a rat; set-up: species or system Wistar male rats
Method: The thoracic aorta is removed from Wistar male rats (approximately 350 g) (IFFA CREDO France) anaesthetized with pentobarbital (60 mg/kg IP) then exsanguinated. The aorta is rapidly put into a physiological solution at ambient temperature. A 1 to 2 mm ring without endothelium is put in an isolated organ bath containing 5 ml of the following physiological solution (composition in mM NaCl: 118.4; KCl: 4.7; MgSO4, 7H2 O: 1.2; CaCl2, 2H2 O: 2.5; KH2 PO4 : 1.2; NaHCO3 : 25; glucose: 10.1) the medium is maintained at 37° C. and oxygenated with a mixture of oxygen (95%) carbon dioxide (5%). The initial pressure imposed is 2 g, the rings are left at rest for 60 to 90 minutes. The reference contraction is caused by the addition of 2 successive concentrations of 3 μM of noradrenalin, left in contact for 15 minutes, followed by 3 washings, the second response serves as the reference contraction. After return to the base line, incubation is carried out for 15 minutes with a concentration of the product to be tested or the solvent then cumulative concentrations of endothelin are added every 5 minutes (concentrations of […]). The inhibition induced by the product is calculated as a % of the reduction relative to the reactivity of the control curves over 2 points: concentration of 10 and 30 nM of endothelin.

[4] = 10 min, IV, 10 minutes before ET1 10 nmole/kg IV
[5] = 0.5 h, PO, 30 minutes before ET1 10 nmole/kg IV

| SMILES | IC50 (Endothelin B receptor) [nM] | IC50 (Endothelin A receptor) [nM] | % inhibition of vasoconstriction (endothelin (ET1) [1]; dose 1.0 mg/kg, ET1 10 μg/kg) [%] | % inhibition of vasoconstriction (endothelin (ET1) [1]; dose 1.0 mg/kg, ET1 (3 μg/kg)) [%] | % inhibition of vasoconstriction (endothelin (ET1) [1]; dose 3.0 mg/kg, ET1 10 μg/kg) [%] | % inhibition of vasoconstriction (endothelin (ET1) [1]; dose 3.0 mg/kg, ET1 (3 μg/kg)) [%] | ED50 (endothelin (ET1) [2]; [4]) [mg/kg] | ED50 (endothelin (ET1) [2]; [5]) [mg/kg] | % inhibition of contraction ([3]; antagonist 0.1 μM, ET 30 nM) [%] | % inhibition of contraction ([3]; antagonist 0.1 μM, ET 10 Nm) [%] | % inhibition of contraction ([3]; antagonist 1.0 μM, ET 30 nM) [%] | % inhibition of contraction ([3]; antagonist 1.0 μM, ET 10 Nm) [%] | % inhibition of vasoconstriction (endothelin (ET1) [1]; dose 10.0 mg/kg, ET1 10 μg/kg) [%] | % inhibition of vasoconstriction (endothelin (ET1) [1]; dose 10.0 mg/kg, ET1 (3 μg/kg)) [%] | % inhibition of vasoconstriction (endothelin (ET1) [1]; dose 0.3 mg/kg, ET1 10 μg/kg) [%] | % inhibition of vasoconstriction (endothelin (ET1) [1]; dose 0.3 mg/kg, ET1 (3 μg/kg)) [%] |
| --- | --- | --- | --- | --- | --- | --- | --- | --- | --- | --- | --- | --- | --- | --- | --- | --- |
| CCCc1nc(SC2CCC(=CC(=O)O)CC2)c(C(=O)O)n1Cc1cc2c(cc1Cl)OCO2 (centres unmarked) [Example 10, 4-((4-(carboxymethylene)cyclohexyl)thio)-1-((6-chloro 1,3-benzodioxol-5-yl)methyl)-2-propyl-1H-imidazole-5-carboxylic acid] | 210 | 1.2 | 39 | 59 | 61 | 58 | 3.3 | 3.2 |  |  |  |  |  |  |  |  |
| CCCc1nc(SCCCCC(=O)O)c(C(=O)O)n1Cc1cc2c(cc1Cl)OCO2 [Example 8, 4-((4-carboxybutyl)thio)-1-((6-chloro-1,3-benzodioxol-5-yl)methyl)-2-(propyl)-1H-imidazole-5-carboxylic acid] | 600 | 1.9 | 22 | 40 | 47 | 57 | 3.5 |  | 97 | 97 | 96 | 95 |  |  |  |  |
| COCc1nc(SCCCCCC(=O)O)c(C(=O)O)n1Cc1cc2c(cc1Cl)OCO2 [Example 4] |  |  |  |  |  |  |  |  |  |  |  |  | 38 | 49 |  |  |
| CCCc1nc(SCCCCCC(=O)O)c(C(=O)O)n1Cc1cc2c(cc1Cl)OCO2 [Example 6] | 293 | 1.2 | 33 | 42 | 37 | 49 | 3.9 |  | 99 | 96 | 98 | 96 |  |  |  |  |
| O=C(O)CCCCCSc1nc(C2OCCO2)n(Cc2cc3c(cc2Cl)OCO3)c1C(=O)O [Example 3] |  |  | 53 | 52 | 71 | 64 | 5 | 24.1 |  |  |  |  |  |  |  |  |
| CCCc1nc(SC2CCC(CC(=O)O)CC2)c(C(=O)O)n1Cc1cc2c(cc1Cl)OCO2 (centres unmarked) [Example 2, 4-((4-(carboxymethyl)cyclohexyl)thio)-1-((6-chloro-1,3-benzodioxol-5-yl)methyl)-2-propyl-1H-imidazole-5-carboxylic acid] | 194 | 1.1 | 65 | 60 | 77 | 63 | 0.8 | 1.1 | 61 | 71 | 100 | 94 |  |  | 39 | 56 |
| CCCCc1nc(SCCCCCC(=O)O)c(C(=O)O)n1Cc1cc2c(cc1Cl)OCO2 [Example 12, 2-butyl 4-((5-carboxypentyl)thio) 1-((6-chloro 1,3-benzodioxol-5-yl)methyl)-1H-imidazole-5-carboxylic acid] |  | 1.1 |  |  |  |  |  |  | 65 | 88 | 98 | 98 | 35 | 30 |  |  |
